Measurements reported in ChEMBL document CHEMBL1201862, “PubChem BioAssay data set” (2004).
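Dose response: 5 concentrations. Exposure: 48 h. Format: 96-well plates. Endpoint: linear interpolation; highest concentration if not reached. Here, GI50 denotes the concentration required for 50% inhibition of growth.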 Active and inactive are the calls of the source. No stated cut-off is given here; in the data, active = GI50 up to about 1.1 µM and inactive = higher.

How the values were obtained:
Test in all cases: NCI anticancer screen, dose series, 48 h
MDA-N = system: MDA-N
786-0 = system: 786-0
Hs-578T = system: Hs-578T
RPMI-8226 = system: RPMI-8226
SW-620 = system: SW-620
MOLT-4 = system: MOLT-4
UO-31 = system: UO-31
SNB-19 = system: SNB-19
MDA-MB-435 = system: MDA-MB-435
NCI/ADR-RES = system: NCI/ADR-RES
HL-60 = system: HL-60
SF-539 = system: SF-539
SF-268 = system: SF-268
SK-MEL-2 = system: SK-MEL-2
T47D = system: T47D
NCI-H226 = system: NCI-H226
KM12 = system: KM12
UACC-257 = system: UACC-257

| SMILES | GI50 (MDA-N) | GI50 (786-0) | GI50 (Hs-578T) | GI50 (RPMI-8226) | GI50 (SW-620) | GI50 (MOLT-4) | GI50 (UO-31) | GI50 (SNB-19) | GI50 (MDA-MB-435) | GI50 (NCI/ADR-RES) | GI50 (HL-60) | GI50 (SF-539) | GI50 (SF-268) | GI50 (SK-MEL-2) | GI50 (T47D) | GI50 (NCI-H226) | GI50 (KM12) | GI50 (UACC-257) |
| --- | --- | --- | --- | --- | --- | --- | --- | --- | --- | --- | --- | --- | --- | --- | --- | --- | --- | --- |
| COC(=NC(C)C)NC(C)C | > 100 µM (inactive) | > 100 µM (inactive) | > 100 µM (inactive) | > 100 µM (inactive) | > 100 µM (inactive) | > 100 µM (inactive) | > 100 µM (inactive) | > 100 µM (inactive) | > 100 µM (inactive) | > 100 µM (inactive) | > 100 µM (inactive) | > 100 µM (inactive) | > 100 µM (inactive) | > 100 µM (inactive) | > 100 µM (inactive) | > 100 µM (inactive) | – | – |
| O=C(NCCCl)Nc1ccccc1 | > 100 µM (inactive) | > 100 µM (inactive) | > 100 µM (inactive) | > 100 µM (inactive) | > 100 µM (inactive) | > 100 µM (inactive) | > 100 µM (inactive) | > 100 µM (inactive) | > 100 µM (inactive) | > 100 µM (inactive) | > 100 µM (inactive) | – | > 100 µM (inactive) | > 100 µM (inactive) | > 100 µM (inactive) | > 100 µM (inactive) | > 100 µM (inactive) | > 100 µM (inactive) |
| O=C1c2cc3c(cc2CC12Cc1ccc4c(c1C2=O)CCCC4)CCCC3 (stereo unspecified) | > 100 µM (inactive) | 20.1 µM (inactive) | 61.7 µM (inactive) | > 100 µM (inactive) | > 100 µM (inactive) | > 100 µM (inactive) | > 100 µM (inactive) | 40.8 µM (inactive) | > 100 µM (inactive) | 44.7 µM (inactive) | > 100 µM (inactive) | 36.1 µM (inactive) | 50.2 µM (inactive) | 45.6 µM (inactive) | > 100 µM (inactive) | – | – | > 100 µM (inactive) |
| Cc1c2oc3c(C)cnc(C(=O)NC4C(=O)NC(C(C)C)C(=O)N5CCCC5C(=O)N(C)CC(=O)N(C)C(C(C)C)C(=O)OC4C)c3nc-2c(C(=O)NC2C(=O)NC(C(C)C)C(=O)N3CCCC3C(=O)N(C)CC(=O)N(C)C(C(C)C)C(=O)OC2C)c(N)c1=O (stereo unspecified) | 0.979 µM (active) | 2.3 µM (inactive) | 1.88 µM (inactive) | 0.211 µM (active) | 0.346 µM (active) | 0.138 µM (active) | 14.2 µM (inactive) | 0.682 µM (active) | 2.74 µM (inactive) | > 61 µM (inactive) | 0.769 µM (active) | 1.42 µM (inactive) | 0.789 µM (active) | 0.431 µM (active) | 1.07 µM (active) | 2.65 µM (inactive) | 5.94 µM (inactive) | 4.58 µM (inactive) |
| COc1ccc(/C=C2\C[C@H]3[C@@H]4CCC5=C/C(=N/O)CC[C@]5(C)[C@H]4CC[C@]3(C)\C2=N\O)cc1 | 15.6 µM (inactive) | 13.1 µM (inactive) | 28.5 µM (inactive) | 5.12 µM (inactive) | 36.9 µM (inactive) | 6.7 µM (inactive) | 4.53 µM (inactive) | 20 µM (inactive) | 26.5 µM (inactive) | 8.18 µM (inactive) | < 0.01 µM (active) | – | 16.9 µM (inactive) | 22.2 µM (inactive) | 7.98 µM (inactive) | 19.1 µM (inactive) | 12.2 µM (inactive) | 30.1 µM (inactive) |
| Cc1cccc2c1C(=O)[C@](C)([C@]1(C)Nc3cccc(C)c3C1=O)N2 | 25 µM (inactive) | 39.4 µM (inactive) | 21.7 µM (inactive) | 10.8 µM (inactive) | 30.7 µM (inactive) | 23.3 µM (inactive) | 18.1 µM (inactive) | 27.3 µM (inactive) | 15.7 µM (inactive) | 27.7 µM (inactive) | < 0.01 µM (active) | 29 µM (inactive) | 16.1 µM (inactive) | 24 µM (inactive) | 28.8 µM (inactive) | 33 µM (inactive) | 35.6 µM (inactive) | 30.8 µM (inactive) |
| COc1cc(OCc2nc3ccccc3n3cccc23)cc(OC)c1OC | 19.4 µM (inactive) | 24.4 µM (inactive) | 52.6 µM (inactive) | 1.34 µM (inactive) | 8.34 µM (inactive) | 2.37 µM (inactive) | 28.1 µM (inactive) | > 51.1 µM (inactive) | 16 µM (inactive) | 17.9 µM (inactive) | 9.35 µM (inactive) | 24.8 µM (inactive) | 41.9 µM (inactive) | > 100 µM (inactive) | 3.78 µM (inactive) | 9.73 µM (inactive) | 15.9 µM (inactive) | 10.6 µM (inactive) |
| CC1CCc2sc3nc(S)n(C)c(=O)c3c2C1 (stereo unspecified) | 44 µM (inactive) | 50.8 µM (inactive) | 78.2 µM (inactive) | 36.7 µM (inactive) | 39.2 µM (inactive) | 41.4 µM (inactive) | 18.3 µM (inactive) | 33.8 µM (inactive) | 50.5 µM (inactive) | 36.1 µM (inactive) | 2.85 µM (inactive) | – | 48.1 µM (inactive) | 40.4 µM (inactive) | 48.5 µM (inactive) | 26.7 µM (inactive) | 42.8 µM (inactive) | 35.3 µM (inactive) |
| COc1ccc2c(-c3ccc(OCCN(C)C)cc3)c(Oc3ccc(Cl)cc3)c(=O)oc2c1 | 2.06 µM (inactive) | 2.59 µM (inactive) | 6.01 µM (inactive) | 4.05 µM (inactive) | 5.41 µM (inactive) | 2.13 µM (inactive) | 3.28 µM (inactive) | 8.02 µM (inactive) | 2.85 µM (inactive) | 9.16 µM (inactive) | – | 3.74 µM (inactive) | 7.76 µM (inactive) | 5 µM (inactive) | > 20.4 µM (inactive) | 23.9 µM (inactive) | 3.66 µM (inactive) | 2.05 µM (inactive) |
| Cc1cccc2c1CC1(Cc3c(C)cccc3C1=O)C2=O | > 100 µM (inactive) | > 100 µM (inactive) | > 100 µM (inactive) | > 100 µM (inactive) | > 100 µM (inactive) | > 100 µM (inactive) | > 100 µM (inactive) | > 100 µM (inactive) | > 100 µM (inactive) | > 100 µM (inactive) | > 100 µM (inactive) | > 100 µM (inactive) | > 100 µM (inactive) | > 100 µM (inactive) | > 100 µM (inactive) | – | – | > 100 µM (inactive) |
| c1ccc(C2=NCCc3cc4c(cc32)OCO4)cc1 | > 100 µM (inactive) | > 100 µM (inactive) | > 100 µM (inactive) | – | > 100 µM (inactive) | – | – | > 100 µM (inactive) | > 100 µM (inactive) | > 100 µM (inactive) | – | > 100 µM (inactive) | > 100 µM (inactive) | > 100 µM (inactive) | > 100 µM (inactive) | – | > 100 µM (inactive) | > 100 µM (inactive) |
| C#CCOC(=O)C(N)CC(N)=O (stereo unspecified) | > 100 µM (inactive) | > 100 µM (inactive) | > 100 µM (inactive) | > 100 µM (inactive) | > 100 µM (inactive) | > 100 µM (inactive) | > 100 µM (inactive) | > 100 µM (inactive) | > 100 µM (inactive) | > 100 µM (inactive) | > 100 µM (inactive) | > 100 µM (inactive) | > 100 µM (inactive) | > 100 µM (inactive) | > 69 µM (inactive) | > 100 µM (inactive) | > 100 µM (inactive) | > 100 µM (inactive) |
| O=[N+]([O-])c1ccccc1S(=O)(=O)c1cc(O)cc2c1NCCC2 | 17.8 µM (inactive) | 12.1 µM (inactive) | 27.4 µM (inactive) | – | 8.41 µM (inactive) | 4.23 µM (inactive) | 15.5 µM (inactive) | 28.5 µM (inactive) | 18.8 µM (inactive) | 21.4 µM (inactive) | 3.47 µM (inactive) | 19.1 µM (inactive) | 20.7 µM (inactive) | 23.7 µM (inactive) | 6.35 µM (inactive) | 28.1 µM (inactive) | 18.7 µM (inactive) | 13.5 µM (inactive) |
| CC12c3c4cc(Br)cc3Oc3cc(Br)cc(c31)Oc1cc(Br)cc(c12)O4 | 41.1 µM (inactive) | 19.8 µM (inactive) | > 100 µM (inactive) | 19.4 µM (inactive) | 24.6 µM (inactive) | 23.1 µM (inactive) | 52 µM (inactive) | > 100 µM (inactive) | 26.2 µM (inactive) | 19.8 µM (inactive) | – | 34.6 µM (inactive) | 10.5 µM (inactive) | 23.1 µM (inactive) | 28.1 µM (inactive) | 11.2 µM (inactive) | 58.5 µM (inactive) | 36.9 µM (inactive) |
| COc1ccc(Cc2c(N)[nH]c(=O)[nH]c2=O)cc1 | > 100 µM (inactive) | > 100 µM (inactive) | > 100 µM (inactive) | 22 µM (inactive) | > 100 µM (inactive) | – | 90.2 µM (inactive) | > 100 µM (inactive) | > 100 µM (inactive) | > 100 µM (inactive) | – | > 100 µM (inactive) | > 100 µM (inactive) | > 100 µM (inactive) | > 100 µM (inactive) | > 100 µM (inactive) | > 100 µM (inactive) | > 100 µM (inactive) |
| COc1ccc(COCC[C@H](C)OC2OC(CO[Si](C)(C)C(C)(C)C)C(OC(=O)CCCN=[N+]=[N-])C(OC(=O)CCCN=[N+]=[N-])C2OC(=O)CCCN=[N+]=[N-])cc1 (stereo partly specified) | 44.9 µM (inactive) | 43.7 µM (inactive) | > 100 µM (inactive) | – | > 100 µM (inactive) | – | 19.9 µM (inactive) | – | > 100 µM (inactive) | 19.1 µM (inactive) | 10.6 µM (inactive) | 27.5 µM (inactive) | 35.3 µM (inactive) | > 100 µM (inactive) | 31 µM (inactive) | 8.39 µM (inactive) | 88.1 µM (inactive) | 26.5 µM (inactive) |
